According to patent US6737383B1, “Herbicidal oxadiazolidines” (priority 1999, dated 2004):

Legend:
bedstraw = test: Test B pre/postemergence bedstraw; format: in vivo, Galium aparine
In short: (§1)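 Response is a visual 0-to-10 score relative to untreated plants, where 0 means no effect and 10 means complete control, taken twelve to sixteen days after application. Treatments went onto soil at planting and onto foliage of 1- to 4-leaf plants, using a surfactant-containing non-phytotoxic solvent.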

blackgrass = test: Test B pre/postemergence blackgrass; format: in vivo, Alopecurus myosuroides
In short: as §1

surinam grass = test: Test B pre/postemergence surinam grass; format: in vivo, Brachiaria decumbens
In short: as §1

cocklebur = test: Test B pre/postemergence cocklebur; format: in vivo, Xanthium strumarium
In short: as §1

corn = test: Test B pre/postemergence corn; format: in vivo, Zea mays
In short: as §1

crabgrass = test: Test B pre/postemergence crabgrass; format: in vivo, Digitaria sanguinalis
In short: as §1

giant foxtail = test: Test B pre/postemergence giant foxtail; format: in vivo, Setaria faberii
In short: as §1

morningglory = test: Test B pre/postemergence morningglory; format: in vivo, Ipomoea hederacea
In short: as §1

pigweed = test: Test B pre/postemergence pigweed; format: in vivo, Amaranthus retroflexus
In short: as §1

rape = test: Test B pre/postemergence rape; format: in vivo, Brassica napus
In short: as §1

soybean = test: Test B pre/postemergence soybean; format: in vivo, Glycine max
In short: as §1

sugar beet = test: Test B pre/postemergence sugar beet; format: in vivo, Beta vulgaris
In short: as §1

velvetleaf = test: Test B pre/postemergence velvetleaf; format: in vivo, Abutilon theophrasti
In short: as §1

wheat = test: Test B pre/postemergence wheat; format: in vivo, Triticum aestivum
In short: as §1

wild oat = test: Test B pre/postemergence wild oat; format: in vivo, Avena fatua
In short: as §1

purple nutsedge = test: Test B pre/postemergence purple nutsedge; format: in vivo, Cyperus rotundus
In short: as §1

[1] = Postemergence, Rate 62 g/ha, scale 0 to 10, 0 is no effect, 10 is complete control
[2] = Preemergence, Rate 125 g/ha, scale of 0 to 10 where 0 is no effect and 10 is complete control
[3] = Preemergence, Rate 250 g/ha, scale 0 (no effect) to 10 (complete control)
[4] = Rate 62 g/ha, Preemergence, scale 0 to 10
[5] = Rate 500 g/ha, Preemergence, scale 0 to 10 (0 no effect, 10 complete control)
[6] = Postemergence, Rate 125 g/ha, scale of 0 to 10 where 0 is no effect and 10 is complete control
[7] = Rate 250 g/ha, Postemergence, scale 0 to 10, 0 is no effect, 10 is complete control
[8] = Rate 500 g/ha, Postemergence, scale 0 to 10, 0 is no effect, 10 is complete control
[9] = Preemergence, Rate 62 g/ha, scale of 0 to 10 where 0 is no effect and 10 is complete control
[10] = Preemergence, Rate 250 g/ha, scale 0 to 10 (0 no effect, 10 complete control)
[11] = Preemergence, Rate 500 g/ha, scale of 0 to 10 where 0 is no effect and 10 is complete control

In the case of `CC(C)N(C(=O)n1oc(=O)n(C(C)C2=NOCC2)c1=O)c1ccc(Cl)cc1` (racemic) [Compound 759], the “Plant response rating, Bedstraw” value (bedstraw; [1]) is reported as 0, the “Plant response rating, Bedstraw” value (bedstraw; [2]) is reported as 0 and the “Bedstraw plant response rating” value (bedstraw; [3]) is reported as 0. For the same compound, the “Bedstraw plant response rating” value (bedstraw; [4]) was 0, the “Bedstraw plant response rating” value (bedstraw; [5]) was 0 and the “Plant response rating, Blackgrass” value (blackgrass; [1]) was 4. For the same compound, the “Blackgrass plant response rating” value (blackgrass; [6]) was 5, the “Plant response rating, Blackgrass” value (blackgrass; [2]) was 5 and the “Blackgrass plant response rating” value (blackgrass; [3]) was 5. For the same compound, the “Blackgrass plant response rating” value (blackgrass; [4]) was 4, the “Blackgrass plant response rating” value (blackgrass; [7]) was 7 and the “Blackgrass plant response rating” value (blackgrass; [8]) was 8. The “Blackgrass plant response rating” value (blackgrass; [5]) was 8, the “Plant response rating, B. signalgrass” value (surinam grass; [1]) was 0 and the “B. signalgrass plant response rating” value (surinam grass; [6]) was 3. For the same compound, the “B. signalgrass plant response rating” value (surinam grass; [9]) was 3, the “Plant response rating, B. signalgrass” value (surinam grass; [2]) was 3 and the “B. signalgrass plant response rating” value (surinam grass; [3]) was 8. The “B. signalgrass plant response rating” value (surinam grass; [7]) was 6, the “B. signalgrass plant response rating” value (surinam grass; [8]) was 7 and the “B. signalgrass plant response rating” value (surinam grass; [5]) was 8. For the same compound, the “Plant response rating, Cocklebur” value (cocklebur; [1]) was 0, the “Cocklebur plant response rating” value (cocklebur; [6]) was 0 and the “Plant response rating, Cocklebur” value (cocklebur; [2]) was 0. The “Cocklebur plant response rating” value (cocklebur; [3]) was 0, the “Cocklebur plant response rating” value (cocklebur; [4]) was 0 and the “Cocklebur plant response rating” value (cocklebur; [7]) was 1. The “Cocklebur plant response rating” value (cocklebur; [8]) was 2, the “Cocklebur plant response rating” value (cocklebur; [5]) was 0 and the “Plant response rating, Corn” value (corn; [1]) was 0. The “Corn plant response rating” value (corn; [6]) was 0, the “Plant response rating, Corn” value (corn; [2]) was 0 and the “Corn plant response rating” value (corn; [3]) was 0. The “Corn plant response rating” value (corn; [4]) was 0, the “Corn plant response rating” value (corn; [7]) was 0 and the “Corn plant response rating” value (corn; [8]) was 0. For the same compound, the “Corn plant response rating” value (corn; [5]) was 0, the “Plant response rating, Crabgrass” value (crabgrass; [1]) was 2 and the “Crabgrass plant response rating” value (crabgrass; [6]) was 4. For the same compound, the “Plant response rating, Crabgrass” value (crabgrass; [2]) was 7, the “Crabgrass plant response rating” value (crabgrass; [3]) was 8 and the “Crabgrass plant response rating” value (crabgrass; [4]) was 7. For the same compound, the “Crabgrass plant response rating” value (crabgrass; [7]) was 8, the “Crabgrass plant response rating” value (crabgrass; [8]) was 8 and the “Crabgrass plant response rating” value (crabgrass; [5]) was 9. For the same compound, the “Plant response rating, Giant foxtail” value (giant foxtail; [1]) was 3, the “Giant foxtail plant response rating” value (giant foxtail; [6]) was 5 and the “Plant response rating, Giant foxtail” value (giant foxtail; [2]) was 9. The “Giant foxtail plant response rating” value (giant foxtail; [3]) was 10, the “Giant foxtail plant response rating” value (giant foxtail; [4]) was 9 and the “Giant foxtail plant response rating” value (giant foxtail; [7]) was 8. For the same compound, the “Giant foxtail plant response rating” value (giant foxtail; [8]) was 8, the “Giant foxtail plant response rating” value (giant foxtail; [5]) was 10 and the “Plant response rating, Morningglory” value (morningglory; [1]) was 3. The “Morningglory plant response rating” value (morningglory; [6]) was 3, the “Plant response rating, Morningglory” value (morningglory; [2]) was 0 and the “Morningglory plant response rating” value (morningglory; [3]) was 0. The “Morningglory plant response rating” value (morningglory; [4]) was 0, the “Morningglory plant response rating” value (morningglory; [7]) was 3 and the “Morningglory plant response rating” value (morningglory; [8]) was 4. The “Morningglory plant response rating” value (morningglory; [5]) was 0, the “Plant response rating, Redroot pigweed” value (pigweed; [1]) was 0 and the “Redroot pigweed plant response rating” value (pigweed; [6]) was 0. For the same compound, the “Plant response rating, Redroot pigweed” value (pigweed; [2]) was 2, the “Redroot pigweed plant response rating” value (pigweed; [3]) was 3 and the “Redroot pigweed plant response rating” value (pigweed; [4]) was 0. The “Redroot pigweed plant response rating” value (pigweed; [7]) was 0, the “Redroot pigweed plant response rating” value (pigweed; [8]) was 4 and the “Redroot pigweed plant response rating” value (pigweed; [5]) was 4. The “Plant response rating, Rape” value (rape; [1]) was 0, the “Rape plant response rating” value (rape; [6]) was 0 and the “Plant response rating, Rape” value (rape; [2]) was 0. For the same compound, the “Rape plant response rating” value (rape; [3]) was 0, the “Rape plant response rating” value (rape; [4]) was 0 and the “Rape plant response rating” value (rape; [7]) was 0. For the same compound, the “Rape plant response rating” value (rape; [8]) was 0, the “Rape plant response rating” value (rape; [5]) was 4 and the “Plant response rating, Soybean” value (soybean; [1]) was 3. The “Plant response rating, Soybean” value (soybean; [2]) was 0, the “Soybean plant response rating” value (soybean; [3]) was 0 and the “Soybean plant response rating” value (soybean; [4]) was 0. For the same compound, the “Soybean plant response rating” value (soybean; [7]) was 3, the “Soybean plant response rating” value (soybean; [8]) was 3 and the “Soybean plant response rating” value (soybean; [5]) was 0. The “Plant response rating, Sugarbeets” value (sugar beet; [1]) was 0, the “Plant response rating, Sugarbeets” value (sugar beet; [2]) was 0 and the “Sugarbeets plant response rating” value (sugar beet; [3]) was 4. For the same compound, the “Sugarbeets plant response rating” value (sugar beet; [4]) was 0, the “Sugarbeets plant response rating” value (sugar beet; [7]) was 0 and the “Sugarbeets plant response rating” value (sugar beet; [8]) was 0. The “Sugarbeets plant response rating” value (sugar beet; [5]) was 5, the “Plant response rating, Velvetleaf” value (velvetleaf; [1]) was 2 and the “Plant response rating, Velvetleaf” value (velvetleaf; [2]) was 0. The “Velvetleaf plant response rating” value (velvetleaf; [3]) was 0, the “Velvetleaf plant response rating” value (velvetleaf; [4]) was 0 and the “Velvetleaf plant response rating” value (velvetleaf; [7]) was 6. For the same compound, the “Velvetleaf plant response rating” value (velvetleaf; [8]) was 6, the “Velvetleaf plant response rating” value (velvetleaf; [5]) was 0 and the “Plant response rating, Wheat” value (wheat; [1]) was 0. For the same compound, the “Plant response rating, Wheat” value (wheat; [2]) was 2, the “Wheat plant response rating” value (wheat; [3]) was 3 and the “Wheat plant response rating” value (wheat; [4]) was 0. The “Wheat plant response rating” value (wheat; [7]) was 0, the “Wheat plant response rating” value (wheat; [8]) was 0 and the “Wheat plant response rating” value (wheat; [5]) was 8. The “Plant response rating, Wild oats” value (wild oat; [1]) was 0, the “Plant response rating, Wild oats” value (wild oat; [2]) was 4 and the “Wild oats plant response rating” value (wild oat; [3]) was 5. The “Wild oats plant response rating” value (wild oat; [4]) was 0, the “Wild oats plant response rating” value (wild oat; [7]) was 2 and the “Wild oats plant response rating” value (wild oat; [8]) was 3. The “Wild oats plant response rating” value (wild oat; [5]) was 8, the “Plant response rating, Nutsedge” value (purple nutsedge; [1]) was 0 and the “Nutsedge plant response rating” value (purple nutsedge; [6]) was 0. For the same compound, the “Plant response rating, Nutsedge” value (purple nutsedge; [2]) was 0, the “Nutsedge plant response rating” value (purple nutsedge; [3]) was 0 and the “Nutsedge plant response rating” value (purple nutsedge; [4]) was 0. For the same compound, the “Nutsedge plant response rating” value (purple nutsedge; [7]) was 0, the “Nutsedge plant response rating” value (purple nutsedge; [8]) was 0 and the “Nutsedge plant response rating” value (purple nutsedge; [5]) was 0.
With `CCn1ncc(Cn2c(=O)on(C(=O)N(c3ccccc3)C(C)C)c2=O)c1Cl` [Compound 683] the “Bedstraw plant response rating” value (bedstraw; [9]) was 0, the “Plant response rating, Bedstraw” value (bedstraw; [2]) was 0 and the “Plant response rating, Bedstraw” value (bedstraw; [10]) was 0. The “Plant response rating, Bedstraw” value (bedstraw; [11]) was 0, the “Blackgrass plant response rating” value (blackgrass; [9]) was 1 and the “Plant response rating, Blackgrass” value (blackgrass; [2]) was 3. For the same compound, the “Plant response rating, Blackgrass” value (blackgrass; [10]) was 7, the “Plant response rating, Blackgrass” value (blackgrass; [11]) was 9 and the “B. signalgrass plant response rating” value (surinam grass; [9]) was 0. For the same compound, the “Plant response rating, B. signalgrass” value (surinam grass; [2]) was 0, the “Plant response rating, B. signalgrass” value (surinam grass; [10]) was 4 and the “Plant response rating, B. signalgrass” value (surinam grass; [11]) was 9. For the same compound, the “Cocklebur plant response rating” value (cocklebur; [9]) was 0, the “Plant response rating, Cocklebur” value (cocklebur; [2]) was 0 and the “Plant response rating, Cocklebur” value (cocklebur; [10]) was 0. The “Plant response rating, Cocklebur” value (cocklebur; [11]) was 0, the “Corn plant response rating” value (corn; [9]) was 0 and the “Plant response rating, Corn” value (corn; [2]) was 0. The “Plant response rating, Corn” value (corn; [10]) was 0, the “Plant response rating, Corn” value (corn; [11]) was 3 and the “Crabgrass plant response rating” value (crabgrass; [9]) was 6. The “Plant response rating, Crabgrass” value (crabgrass; [2]) was 8, the “Plant response rating, Crabgrass” value (crabgrass; [10]) was 9 and the “Plant response rating, Crabgrass” value (crabgrass; [11]) was 10. The “Giant foxtail plant response rating” value (giant foxtail; [9]) was 8, the “Plant response rating, Giant foxtail” value (giant foxtail; [2]) was 9 and the “Plant response rating, Giant foxtail” value (giant foxtail; [11]) was 10. The “Morningglory plant response rating” value (morningglory; [9]) was 0, the “Plant response rating, Morningglory” value (morningglory; [2]) was 0 and the “Plant response rating, Morningglory” value (morningglory; [11]) was 2. The “Redroot pigweed plant response rating” value (pigweed; [9]) was 0, the “Plant response rating, Redroot pigweed” value (pigweed; [2]) was 2 and the “Plant response rating, Redroot pigweed” value (pigweed; [11]) was 6. For the same compound, the “Rape plant response rating” value (rape; [9]) was 0, the “Plant response rating, Rape” value (rape; [2]) was 0 and the “Plant response rating, Rape” value (rape; [11]) was 0. For the same compound, the “Soybean plant response rating” value (soybean; [9]) was 0, the “Plant response rating, Soybean” value (soybean; [2]) was 0 and the “Plant response rating, Soybean” value (soybean; [11]) was 0. For the same compound, the “Sugarbeets plant response rating” value (sugar beet; [9]) was 0, the “Plant response rating, Sugarbeets” value (sugar beet; [2]) was 0 and the “Plant response rating, Sugarbeets” value (sugar beet; [11]) was 0. The “Velvetleaf plant response rating” value (velvetleaf; [9]) was 0, the “Plant response rating, Velvetleaf” value (velvetleaf; [2]) was 0 and the “Plant response rating, Velvetleaf” value (velvetleaf; [11]) was 0. The “Wheat plant response rating” value (wheat; [9]) was 0, the “Plant response rating, Wheat” value (wheat; [2]) was 0 and the “Plant response rating, Wheat” value (wheat; [11]) was 0. For the same compound, the “Wild oats plant response rating” value (wild oat; [9]) was 0, the “Plant response rating, Wild oats” value (wild oat; [2]) was 0 and the “Plant response rating, Wild oats” value (wild oat; [11]) was 8. For the same compound, the “Nutsedge plant response rating” value (purple nutsedge; [9]) was 0, the “Plant response rating, Nutsedge” value (purple nutsedge; [2]) was 0 and the “Plant response rating, Nutsedge” value (purple nutsedge; [11]) was 0.
